Experimental data as given in patent publication EP1581471B9, “CYCLOPENTENONE DERIVATIVES FOR CANCER THERAPY” (Dabur Research Foundation, priority 2002, dated 2004).
≈ marks a conversion by molar mass, not a printed value.

How the values were obtained:
Test in all cases: three day MTT cytotoxicity assay
Assay type in all cases: cell-based, human
SW620 = conditions: 72 hours
Procedure: (§1) A number of the cyclopentenone derivatives were tested for cytotoxicity against 9 human tumor cell lines. Briefly, a three day MTT cytotoxicity assay was performed, which is based on the principle of uptake of MTT (3-(4,5-dimethylthiazol-2-yl)-2,5-diphenyl tetrazolium bromide), a tetrazolium salt, by the metabolically active cells where it is metabolized by active mitochondria into a blue colored formazan product that is read spectrophotometrically. MTT was dissolved in phosphate buffered saline with a pH of 7.4 to obtain an MTT concentration of 5mg/ml; the resulting mixture was filtered through a 0.22 micron filter to sterilize and remove a small amount of insoluble residue. For each type of tumor cell, 10000 to 15000 cells were seeded in a 96-well culture plate and incubated with the individual cyclopentenone derivatives in a CO2 incubator for a total of 72 hours. Control cells not treated with the cyclopentenone derivatives were similarly incubated. The assay was terminated by adding 100 ug (20 ul) of MTT to each well, then incubating for additional one hour, and finally adding 50 ul of 10% SDS-0.01N HCl to each well to lyse the cells and dissolve formazan. After incubating for one hour, the plate was read spectrophotometrically at 540 nm and the percentage of cytotoxicity calculated using the following formula: Cytotoxicity percentage = 100 × [1-(X/R1)], [formula] where X = (absorbance of treated sample at 540 nm) - (absorbance of blank at 540 nm) R1 = absorbance of control sample at 540 nm.
(§2) The ED50 Values of the cytotoxicity defined as the concentration at which 50 % of the cells are killed in vitro was calculated for each cell line treated with each of the cyclopentenone derivatives.
(§3) The cell lines are PTC (all colon), MOLT-4 (leukemia), SW620 […], DU145 (prostate), KB (oral squamous cell), L132 (lung), MIAPaCa2 (Pancreas), Hep2, (larynx), PA-1 (ovary), HuTu80 (duodenum), ECV 304 (endothelial), and 293 (kidney).

PTC = PTC (colon), 72 hours
Procedure: as §1, §2, §3

Hep2 = Hep2 (larynx), 72 hours
Procedure: as §1, §2, §3

ECV 304 = ECV 304 (endothelial), 72 hours
Procedure: as §1, §2, §3

DU145 = DU145 (prostate), 72 hours
Procedure: as §1, §2, §3

L132 = L132 (lung), 72 hours
Procedure: as §1, §2, §3

MIAPaCa2 = MIAPaCa2 (Pancreas), 72 hours
Procedure: as §1, §2, §3

MOLT-4 = MOLT-4 (leukemia), 72 hours
Procedure: as §1, §2, §3

PA-1 = PA-1 (ovary), 72 hours
Procedure: as §1, §2, §3

KB = KB (oral squamous cell), 72 hours
Procedure: as §1, §2, §3

293 = 293 (kidney), 72 hours
Procedure: as §1, §2, §3

HuTu80 = HuTu80 (duodenum), 72 hours
Procedure: as §1, §2, §3

| SMILES | ED50 (ug/ml) SW620 (SW620; SW620 (ovary)) | ED50 (ug/ml) PTC (PTC) | ED50 (ug/ml) Hep2 (Hep2) | ED50 (ug/ml) ECV 304 (ECV 304) | ED50 (ug/ml) DU145 (DU145) | ED50 (ug/ml) L132 (L132) | ED50 (ug/ml) MiaPaca (MIAPaCa2) | ED50 (ug/ml) MOLT4 (MOLT-4) | ED50 (ug/ml) PA1 (PA-1) | ED50 (ug/ml) KB (KB) | ED50 (ug/ml) SW620 (SW620; SW620 (colon)) | ED50 (ug/ml) 293 293 | ED50 (ug/ml) HuTu80 (HuTu80) |
| --- | --- | --- | --- | --- | --- | --- | --- | --- | --- | --- | --- | --- | --- |
| COc1ccc(C2=C(c3cc(OC)c(OC)c(OC)c3)C(=O)C(O[Si](C)(C)C(C)(C)C)C2)cc1 (stereo not shown) [Compound 52, O-tert-Butyldimethylsilyloxy-3-(4-methoxyphenyl)-2-(3,4,5-trimethoxyphenyl)-cyclopent-2-en-1-one] | 5.0 ± 1.0 µg/mL (≈ 10.3 µM) | 16 ± 3.6 µg/mL (≈ 33 µM) | 16 ± 3.0 µg/mL (≈ 33 µM) | 16 ± 4.0 µg/mL (≈ 33 µM) | 28 ± 4.0 µg/mL (≈ 57.8 µM) | 9.0 ± 2.5 µg/mL (≈ 18.6 µM) | <1.0 µg/mL | 3.0 ± 1.5 µg/mL (≈ 6.19 µM) | 7.0 ± 3.5 µg/mL (≈ 14.4 µM) | 7.0 ± 3.0 µg/mL (≈ 14.4 µM) | – | – | – |
| COc1cc(C2=C(c3ccc(SC)cc3)CC(O[Si](C)(C)C(C)(C)C)C2=O)cc(OC)c1OC (stereo not shown) [Compound 55, 5-tert-Butyldimethylsilyloxy-3-(4-thiomethylphenyl)-2-(3,4,5 trimethoxyphenyl)-cyclopent-2-en-1-one] | <1.0 µg/mL | 14 ± 3.5 µg/mL (≈ 28 µM) | >100 µg/mL | >100 µg/mL | >100 µg/mL | <1.0 µg/mL | <1.0 µg/mL | <1.0 µg/mL | <1.0 µg/mL | 10 ± 1.5 µg/mL (≈ 20 µM) | – | – | – |
| COc1ccc(C2=C(c3cc(OC)c(OC)c(OC)c3)C(=O)C(O[Si](C)(C)C(C)(C)C)C2)cc1OC(C)C (stereo not shown) [Compound 56, 5-tert-Butyldimethylsilyloxy-3-(4-methoxy-3-i-propoxyphenyl)-2-(3,4,5-trimethoxyphenyl)-cyclopent-2-en-1-one] | – | >100 µg/mL | 7.1 ± 1.5 µg/mL (≈ 13.1 µM) | >100 µg/mL | 6.3 ± 2.1 µg/mL (≈ 11.6 µM) | 7 µg/mL (≈ 12.9 µM) | >100 µg/mL | 22.5 ± 4.0 µg/mL (≈ 41.5 µM) | 7.1 ± 1.5 µg/mL (≈ 13.1 µM) | 7.5 ± 3.5 µg/mL (≈ 13.8 µM) | 9 ± 1.5 µg/mL (≈ 16.6 µM) | >100 µg/mL | 6 ± 0.5 µg/mL (≈ 11.1 µM) |
| COc1ccc(C2=C(c3cc(OC)c(OC)c(OC)c3)C(=O)C(O)C2)cc1F (stereo not shown) [Compound 64, 5-Hydroxy-3-(3-fluoro-4-methoxyphenyl)-2-(3,4,5-trimethoxyphenyl)-cyclopent-2-en-1-one] | – | 20 ± 2.5 µg/mL (≈ 51.5 µM) | <1 µg/mL | 19.5 ± 4.5 µg/mL (≈ 50.2 µM) | 27 ± 3.5 µg/mL (≈ 69.5 µM) | <1 µg/mL | 64 ± 3.5 µg/mL (≈ 165 µM) | – | – | 4.5 ± 1.5 µg/mL (≈ 11.6 µM) | <1 µg/mL | >100 µg/mL | <1 µg/mL |
| COc1ccc(C2=C(c3cc(OC)c(OC)c(OC)c3)C(=O)C(O)C2)cc1Cl (stereo not shown) [Compound 67, 5-Hydroxy-3-(3-chloro-4-methoxyphenyl)-2-(3,4,5-trimethoxyphenyl)-cyclopent-2-en-1-one] | <1 µg/mL | 30 ± 4.0 µg/mL (≈ 74.1 µM) | <1 µg/mL | 20 ± 3.5 µg/mL (≈ 49.4 µM) | 40 ± 8.5 µg/mL (≈ 98.8 µM) | <1 µg/mL | >100 µg/mL | – | – | 2.5 ± 0.1 µg/mL (≈ 6.18 µM) | – | >100 µg/mL | 29 ± 2.5 µg/mL (≈ 71.6 µM) |
